Here are results for 71 molecules from ChEMBL document CHEMBL1127989, “Structure-activity studies of synthetic FKBP ligands as peptidyl-prolyl isomerase inhibitors” (Bioorg Med Chem Lett, 1994).

Assay [1] is described as follows: Inhibition constant against peptidyl prolyl isomerase. The note with it: read-out: Ki app.
The nature of assay [2]: Apparent inhibition constant against peptidyl prolyl isomerase (Ki app).
Assay [3] is described as follows: Apparent inhibition constant against peptidyl prolyl isomerase; range=0.004-0.010. To be noted: read-out: Ki app.
Assay [4] can be described thus: Apparent inhibition constant against peptidyl prolyl isomerase; range = 0.002-0.006. The note with it: read-out: Ki app.
Assay [5] in a line: Apparent inhibition constant against peptidyl prolyl isomerase; range=0.3-0.6. The note with it: read-out: Ki app.

Take `C/C(=C\c1ccccc1)COC(=O)C1CCCCN1C(=O)C(=O)C1CCCCC1` (stereo unspecified): the Ki in assay [1] came to 300 nM.
On to `CCCC(=O)C1CCCCN1C(=O)C(=O)C(C)(C)CC` (stereo unspecified), for which the Ki in assay [1] was found to be 30000 nM.
As to `C=CCN(CC(=O)OCC)C(=O)C(=O)C1(OC)CCCCC1`, the Ki in assay [1] came to 260000 nM.
For `CCOC(=O)CN(C)C(=O)C(=O)C1(OC)CCCCC1`, the Ki in assay [1] amounted to 23000 nM.
For `CCOC(=O)[C@@H]1CCCN1C(=O)C(=O)C1(OC)CCCCC1`, the Ki in assay [1] is 8000 nM.
Consider `O=C(C(=O)N1CCCCC1C(=O)N(CCCc1ccccc1)Cc1ccccc1)C1CCCCC1` (stereo unspecified), for which the Ki in assay [2] came out at 20000 nM.
Consider `CCOC(=O)C1CCCCN1C(=O)C(C)=O` (stereo unspecified), for which the Ki in assay [1] turned out to be 170000 nM.
Consider `CCC(C)(C)C(=O)C(=O)N1CCCCC1C(=O)OCCCC1CCCCC1` (stereo unspecified), for which the Ki in assay [1] came out at 186 nM.
On to `CCC(C)(C)C(=O)C(=O)N1CCCCC1C(=O)OCCc1ccccc1` (stereo unspecified), for which the Ki in assay [1] came to 340 nM.
As for `O=C(C(=O)N1CCCCC1C(=O)NCCCc1ccccc1)C1CCCCC1` (stereo unspecified), the Ki in assay [1] amounted to 1000 nM.
Consider `CCC(C)(C)C(=O)C(=O)N1CCCCC1C(=O)OCCCc1c[nH]c2ccccc12` (stereo unspecified), for which the Ki in assay [1] came to 23 nM.
Same read-out and setting: then `CCOC(=O)C1CCCCN1C(=O)C(=O)C(C)(C)C` (stereo unspecified), with 2000 nM.
For `CCC(C)(C)C(=O)C(=O)N1CCCC[C@@H]1C(=O)OC(CCc1ccccc1)c1ccc2ccccc2c1` (stereo partly specified), the Ki in assay [3] was determined as 4 nM.
On to `CCOC(=O)C1CCCCN1C(=O)C(=O)C1(O)CCCCC1` (stereo unspecified), for which, in assay [1], the Ki stood at 1600 nM.
As to `CCC(C)(C)C(=O)C(=O)N1CCCC[C@@H]1C(=O)OC(CCc1ccc2c(c1)OCO2)c1ccccc1` (stereo partly specified), in assay [1], the Ki was 9 nM.
`CCC(C)(C)C(=O)C(=O)N1CCCCC1C(=O)OCCCc1cccnc1` (stereo unspecified): the Ki in assay [1] was 165 nM.
`CCC(C)(C)C(=O)C(=O)N1CCCCC1C(=O)OCCCc1ccccc1OC` (stereo unspecified): the Ki in assay [1] was 60 nM.
In the case of `CCOC(=O)C1CCCCN1C(=O)C(=O)Cc1ccccc1` (stereo unspecified), in assay [1], the Ki is 9000 nM.
Take `O=C(C(=O)N1CCCCC1C(=O)OCc1ccccc1)C1CCCCC1` (stereo unspecified): in assay [1], the Ki amounted to 400 nM.
Regarding `O=C(C(=O)N1CCCC[C@@H]1C(=O)NC(CO)Cc1ccccc1)C1CCCCC1` (stereo partly specified), in assay [2], the Ki was determined as 60000 nM.
In the case of `CCC(C)(C)C(=O)C(=O)N1CCCCC1C(=O)OCc1cccc2ccccc12` (stereo unspecified), the Ki in assay [1] is 250 nM.
Regarding `CCOC(=O)C1CCCCN1C(=O)C(=O)C1(O)CCCCO1` (stereo unspecified), the Ki in assay [2] (read-out: Ki app) was 7000 nM.
For the molecule `CCOC(=O)C1CCCCN1C(=S)C(=O)CC(C)C` (stereo unspecified), in assay [1], the Ki stood at 4300 nM.
`CCC(C)(C)C(=O)C(=O)N1CCCC[C@@H]1C(=O)OC(CCc1cc(OC)c(OC)c(OC)c1)c1ccccc1` (stereo partly specified): the Ki in assay [1] stood at 9 nM.
Regarding `C=CC(C)(C)C(CCc1ccccc1)OC(=O)[C@H]1CCCCN1C(=O)C(=O)C(C)(C)CC` (stereo partly specified), the Ki in assay [1] stood at 250 nM.
For the molecule `CCC(C)(C)C(=O)C(=O)N1CCCCC1C(=O)OCCc1c[nH]c2ccccc12` (stereo unspecified), the Ki in assay [1] amounted to 330 nM.
Same read-out and setting: for `CCOC(=O)C1CCCN(C(=O)C(=O)C2(OC)CCCCO2)C1` (stereo unspecified) the value was 180000 nM.
For the molecule `CCC(C)(C)C(=O)C(=O)N1CCCCC1C(=O)OCCCCc1ccccc1` (stereo unspecified), the Ki in assay [1] stood at 100 nM.
As to `COC1(C(=O)C(=O)N2CCCCC2)CCCCO1` (stereo unspecified), in assay [1], the Ki was determined as 160000 nM.
Turning to `CCOC(=O)C1CCCCN1C(=O)C(=O)CC` (stereo unspecified), the Ki in assay [1] was found to be 50000 nM.
Take `CCC(C)(C)C(=O)C(=O)N1CCCCC1C(=O)OCC(C)(C)C` (stereo unspecified): the Ki in assay [1] was found to be 410 nM.
Regarding `CC(C)(CCC1CCCCC1)OC(=O)C1CCCCN1C(=O)C(=O)C1CCCCC1` (stereo unspecified), the Ki in assay [1] was 200 nM.
Take `CCC(C)(C)C(=O)C(=O)N1CCCCC1C(=O)OC/C=C/c1ccc(OC)c(OC)c1` (stereo unspecified): the Ki in assay [1] is 35 nM.
Still for that read-out and setting: for `CCOC(=O)C1CCCCN1C(=O)C(=O)C1=CCCCO1` (stereo unspecified) the value was 20000 nM; for `COc1cc(CCCOC(=O)[C@@H]2CCCCN2S(=O)(=O)Cc2ccccc2)cc(OC)c1OC`, 230 nM; for `CCOC(=O)C1CCCCN1C(=O)C(=O)c1ccccc1` (stereo unspecified), 8000 nM.
For `CCC(C)(C)C(O)C(=O)N1CCCC[C@H]1C(=O)OCCCc1ccccc1` (stereo partly specified), the Ki in assay [1] worked out at 2300 nM.
As for `CCC(C)(C)C(=O)C(=O)N1CCCC[C@@H]1C(=O)OC(CCc1ccccc1)C1CCCCC1` (stereo partly specified), the Ki in assay [1] amounted to 7 nM.
Consider `CCOC(=O)C1CCCCN1C(=O)C(=O)N1CCCCC1` (stereo unspecified), for which the Ki in assay [1] is 33000 nM.
With `CCC(C)(C)C(=O)C(=O)N1CCCC[C@@H]1C(=O)OC(CCC1CCCCC1)c1ccccc1` (stereo partly specified), the Ki in assay [1] is 10 nM.
With `CCC(C)(C)C(=O)C(=O)N1CCCC[C@@H]1C(=O)OC(CCc1ccc(OC)c(OC)c1)c1ccccc1` (stereo partly specified), the Ki in assay [4] came to 2 nM.
For the molecule `CCC(C)(C)C(=O)C(=O)N1CCCCC1C(=O)OC(CCc1ccccc1)Cc1ccccc1` (stereo unspecified), the Ki in assay [1] came out at 55 nM.
On the same count and under the same terms, for `CCOC(=O)C1CCCCN1C(=O)C(=O)C(C)(C)COC(C)=O` (stereo unspecified) the value was 1000 nM; for `CCC(C)(C)C(=O)C(=O)N1CCCCC1C(=O)OCCCc1ccc(OC)c(OC)c1` (stereo unspecified), 20 nM.
As for `CCC(C)(C)C(=O)C(=O)N1CCCCC1C(=O)OCCCc1cc(OC)c(OC)c(OC)c1` (stereo unspecified), the Ki in assay [1] is 12 nM.
As for `CCC(C)(C)C(=O)C(=O)N1CCCCC1C(=O)OCCC(c1ccccc1)c1ccccc1` (stereo unspecified), in assay [1], the Ki was determined as 27 nM.
In the case of `CCOC(=O)C1CCCCN1C(=O)C(=O)C(C)C` (stereo unspecified), the Ki in assay [1] was 6000 nM.
For `CCOC(=O)C(CCc1ccccc1)NC(=O)[C@H]1CCCCN1C(=O)C(=O)C1CCCCC1` (stereo partly specified), the Ki in assay [2] was found to be 1900 nM.
Take `CCC(C)(C)C(=O)C(=O)N1CCCC[C@H]1C(=O)OC(CCc1ccccc1)c1ccccc1` (stereo partly specified): the Ki in assay [5] stood at 300 nM.
Turning to `CCOC(=O)C1CCCCN1NC(=O)C1CCCCC1` (stereo unspecified), the Ki in assay [1] turned out to be 730000 nM.
Still for that read-out and setting: then `CCOC(=O)[C@H]1CCCCN1C(=O)C(=O)C1(OC)CCCCC1`, with 22000 nM.
For the molecule `CCOC(=O)[C@H]1CCCN1C(=O)C(=O)C1(OC)CCCCC1`, in assay [1], the Ki came to 600000 nM.
Take `CCC(C)(C)C(=O)C(=O)N1CCCC[C@H]1C(=O)OC(CCc1ccccc1)C1CCCCC1` (stereo partly specified): the Ki in assay [1] was 300 nM.
Take `CCOC(=O)C1CCCCN1C(=O)C(=O)CC(C)C` (stereo unspecified): the Ki in assay [1] is 2000 nM.
Consider `CCC(C)(C)C(=O)C(=O)N1CCCCC1C(=O)OCCCc1ccc(OC)cc1` (stereo unspecified), for which the Ki in assay [1] amounted to 70 nM.
In the case of `CCOC(=O)C1CCCCN1C(=O)C(=O)C1(OC)CCCCC1` (stereo unspecified), the Ki in assay [1] was 1000 nM.
For `O=C(C(=O)N1CCCC[C@H]1C(=O)OC(CCC1CCCCC1)c1ccccc1)C1CCCCC1` (stereo partly specified), in assay [1], the Ki turned out to be 16000 nM.
Same read-out and setting: then `COc1cc(CC[C@@H](OC(=O)[C@@H]2CCCCN2C(=O)CC(C)(C)C)c2ccccc2)cc(OC)c1OC`, with 200 nM.
As for `CCOC(=O)C1CCCCN1C(=O)C(=O)C1CCCCC1` (stereo unspecified), in assay [1], the Ki was 2000 nM.
For `CCOC(=O)C1CCCCN1C(=O)C(=O)C1(OC)CCCCO1` (stereo unspecified), the Ki in assay [1] came out at 4000 nM.
With `O=C(O[C@H](CCc1ccccc1)c1ccccc1)[C@@H]1CCCCN1S(=O)(=O)Cc1ccccc1`, the Ki in assay [1] is 160 nM.
In the case of `CCC(C)(C)C(=O)C(=O)N1CCCCC1C(=O)OCc1ccc2ccccc2c1` (stereo unspecified), the Ki in assay [1] came out at 200 nM.
As for `CCC(C)(C)C(=O)C(=O)N1CCCCC1C(=O)OCCCc1ccc(OCc2ccccc2)cc1` (stereo unspecified), the Ki in assay [1] came out at 60 nM.
As to `O=C(C(=O)N1CCCCC1C(=O)NCCc1ccccc1)C1CCCCC1` (stereo unspecified), in assay [2], the Ki is 3000 nM.
Take `CCC(C)(C)C(=O)C(=O)N1CCCCC1C(=O)OCCCc1ccc(O)cc1` (stereo unspecified): the Ki in assay [1] stood at 95 nM.
In the case of `CCC(C)(C)C(=O)C(=O)N1CCCCC1C(=O)OCCCc1ccccc1` (stereo unspecified), the Ki in assay [1] amounted to 110 nM.
The same measure, in the same setting: then `CCOC(=O)C1CCCCN1C(=O)C(=O)C(C)(C)CC` (stereo unspecified), with 660 nM; and `O=CC1CCCCN1C(=O)C(=O)C1CCCCC1` (stereo in doubt; 35), with 250 nM.
Turning to `O=CC1CCCCN1C(=O)C(=O)C1CCCCC1` (stereo in doubt; 44), the Ki in assay [1] was determined as 200 nM.
Still for that read-out and setting: then `O=CC1CCCCN1C(=O)C(=O)C1CCCCC1` (stereo in doubt; 59), with 20 nM.
Same read-out and setting: then `CO[C@H]1C[C@@H]2CC[C@@H](C)[C@@](O)(O2)C(=O)C(=O)N2CCCC[C@H]2C(=O)O[C@H]([C@H](C)C[C@@H]2CC[C@@H](O)[C@H](OC)C2)CC(=O)[C@H](C)/C=C(\C)[C@@H](O)[C@@H](OC)C(=O)[C@H](C)C[C@H](C)/C=C/C=C/C=C/1C` [SIROLIMUS], with 1000 nM.
